Reference: patent publication US9458172B2, “Pyridinyl and pyrimidinyl sulfoxide and sulfone derivatives” (priority 2012, dated 2016)
Read-outs that look alike come from different tables or passages of the source.

What was measured:
A2780 cells = test: In-Vitro Cell Proliferation Assay (SRB); settings: Homo sapiens, A2780, 72 h
NAMPT = NAMPT (Homo sapiens (Human), UniProt P43490); test: Biochemical Inhibition Assay (NAMPT enzymatic reaction, NMN quantified by mass spectrometry); settings: 33 nM recombinant His-tagged NAMPT, 1 μM NAM, 30 min at rt
Method in brief: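 His-tagged human NAMPT from E. coli preincubated 15 min at rt with compound in 50 mM Hepes pH 7.5, 50 mM NaCl, 5 mM MgCl2, 1 mM THP, then reacted 30 min at rt with 1 μM NAM, […] PRPP, 2.5 mM ATP. NMN quantified by RapidFire mass spectrometry, normalized to L-Cystathionine, background subtracted.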

[1] = read-out: Cell Proliferation (IC50)

NAMPT, sequence (P43490 whole entry): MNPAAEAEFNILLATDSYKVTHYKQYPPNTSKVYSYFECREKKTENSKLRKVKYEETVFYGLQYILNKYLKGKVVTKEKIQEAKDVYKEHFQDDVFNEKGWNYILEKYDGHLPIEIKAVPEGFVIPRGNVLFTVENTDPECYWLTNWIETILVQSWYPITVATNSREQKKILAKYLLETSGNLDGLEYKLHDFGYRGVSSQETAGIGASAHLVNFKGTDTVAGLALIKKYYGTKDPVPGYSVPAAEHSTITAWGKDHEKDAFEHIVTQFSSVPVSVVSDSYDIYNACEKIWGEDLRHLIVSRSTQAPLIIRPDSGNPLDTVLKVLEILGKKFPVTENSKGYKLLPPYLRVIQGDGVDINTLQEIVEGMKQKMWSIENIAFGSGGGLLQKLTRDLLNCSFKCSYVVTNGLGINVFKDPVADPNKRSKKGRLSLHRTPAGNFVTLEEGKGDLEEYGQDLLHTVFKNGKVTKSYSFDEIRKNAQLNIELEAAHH

SMILES	IC50 (A2780 cells; [1]) [nM]	IC50 (NAMPT) [nM]	IC50 (A2780 cells; read-out: Cell Proliferation (IC50), A2780 cells, 72 h, sulforhodamine B) [nM]
CN(C)c1ncc(S(=O)(=O)c2ccc(CNC(=O)c3cc4ccncc4s3)nc2)s1 [Example 75, Thieno[2,3-c]pyridine-2-carboxylic acid [5-(2-dimethylamino-thiazole-5-sulfonyl)-pyridin-2-ylmethyl]-amide]	0.8	2.2	–
CCCn1cc(S(=O)(=O)c2ccc(CNC(=O)c3cc4ccncc4s3)nc2)cn1 [Example 76, Thieno[2,3-c]pyridine-2-carboxylic acid [5-(1-propyl-1H-pyrazole-4-sulfonyl)-pyridin-2-ylmethyl]-amide]	9	3.1	–
O=C(NCc1ncc(S(=O)(=O)c2cccc(C(F)(F)F)c2)cn1)c1ccc2nccn2c1 [Example 77, Imidazo[1,2-a]pyridine-6-carboxylic acid [5-(3-trifluoromethyl-benzenesulfonyl)-pyrimidin-2-ylmethyl]-amide]	16.5	17.6	–
O=C(NCc1ccc(S(=O)(=O)c2ccc(C(F)(F)F)nc2)cn1)c1cc2ccncc2s1 [Example 78, Thieno[2,3-c]pyridine-2-carboxylic acid [5-(6-trifluoromethyl-pyridine-3-sulfonyl)-pyridin-2-ylmethyl]-amide]	551	59.4	–
O=C(NCc1ccc(S(=O)(=O)c2ccc(C(F)(F)F)nc2)cn1)c1cc2ccncc2o1 [Example 79, Furo[2,3-c]pyridine-2-carboxylic acid [5-(6-trifluoromethyl-pyridine-3-sulfonyl)-pyridin-2-ylmethyl]-amide]	124	20.5	–
CC(C)n1cc(S(=O)(=O)c2ccc(CNC(=O)N3Cc4ccncc4C3)nc2)cn1 [Example 80, 1,3-Dihydro-pyrrolo[3,4-c]pyridine-2-carboxylic acid [5-(1-isopropyl-1H-pyrazole-4-sulfonyl)-pyridin-2-ylmethyl]-amide]	83.2	22.7	–
O=C(NCc1ncc(S(=O)(=O)c2cccc(C(F)(F)F)c2)cn1)c1cc2ccncc2o1 [Example 81, Furo[2,3-c]pyridine-2-carboxylic acid [5-(3-trifluoromethyl-benzenesulfonyl)-pyrimidin-2-ylmethyl]-amide]	18.5	12.3	–
O=C(NCc1ccc(S(=O)(=O)c2ccc(C(F)(F)F)nc2)cn1)c1ccc2nccn2c1 [Example 82, Imidazo[1,2-a]pyridine-6-carboxylic acid [5-(6-trifluoromethyl-pyridine-3-sulfonyl)-pyridin-2-ylmethyl]-amide]	330	72.3	–
CN(C)c1ccc(S(=O)(=O)c2ccc(CNC(=O)c3ccc4nccn4c3)nc2)cn1 [Example 83, Imidazo[1,2-a]pyridine-6-carboxylic acid [5-(6-dimethylamino-pyridine-3-sulfonyl)-pyridin-2-ylmethyl]-amide]	7.3	9.1	–
CN(C)c1ccc(S(=O)(=O)c2ccc(CNC(=O)c3cnc4[nH]ncc4c3)nc2)cn1 [Example 84, 1H-Pyrazolo[3,4-b]pyridine-5-carboxylic acid [5-(6-dimethylamino-pyridine-3-sulfonyl)-pyridin-2-ylmethyl]-amide]	20.4	27.8	–
O=C(NCc1ccc(S(=O)(=O)c2cc(F)cc(N3CCOCC3)c2)cn1)c1cnc2[nH]ncc2c1 [Example 85, 1H-Pyrazolo[3,4-b]pyridine-5-carboxylic acid [5-(3-fluoro-5-morpholin-4-yl-benzenesulfonyl)-pyridin-2-ylmethyl]-amide]	9.7	32.9	–
Nc1ncc2c(n1)CN(C(=O)NCc1ccc(S(=O)(=O)c3cc(F)cc(F)c3)cn1)C2 [Example 86, 2-Amino-5,7-dihydro-pyrrolo[3,4-d]pyrimidine-6-carboxylic acid [5-(3,5-difluoro-benzenesulfonyl)-pyridin-2-ylmethyl]-amide]	–	354	2000
